Structures can show the parent of a compound that is named as a salt.
Target: T1, 5HT UPTAKE (Rattus norvegicus, UniProt P31652)
T1 construct: Crude synaptosomal preparations were isolated after differential centrifugation; from tissue; host or cells: rat cerebral cortex, crude synaptosomes
Test: Inhibition of synaptosomal uptake of 3H-serotonin (3H-5HT) in vitro, rat cerebral cortex synaptosomes
Assay type: biochemical, Sprague-Dawley rats
Conditions: concentration needed to inhibit the uptake of 3H-5HT by 50%; rat cortical synaptosomes, 37°C, 5 min, 50 nM 3H-5HT
Description: This general procedure is set forth in Wong et al., Drug Development Research 6:397-403 (1985).
Male Sprague-Dawley rats (110-150 g) from Harlan Industries (Cumberland, IN) were fed Purina Chow ad libitum for at least 3 days before being used in the studies. Rats were killed by decaptiation. Whole brains were removed and dissected. Cerebral cortex was homogenized in 9 volumes of a medium containing 0.32 M sucrose and 10 mM glucose. Crude synaptosomal preparations were isolated after differential centrifugation at 1,000 g for 10 min. and 17,000 g for 28 min. The final pellets were suspended in the same medium and kept in ice until use within the same day.
Synaptosomal uptake of ³H-serotonin (³H-5-hydroxytryptamine, ³H-5HT) was determined as follows: Cortical synaptosomes (equivalent to 1 mg of protein) were incubated at 37°C for 5 min in 1 ml of Krebs-bicarbonate medium containing also 10 mM glucose, […], 1 mM ascorbic acid, 0.17 mM EDTA and 50 nM ³H-5HT. The reaction mixture was immediately diluted with 2 ml of ice-chilled Krebs-bicarbonate buffer and filtered under vacuum with a cell harvester (Brandel, Gaithersburg, MD). Filters were rinsed twice with approximately 5 ml of ice-chilled 0.9% saline and were transferred to a counting vial containing 10 ml of scintillation fluid (PCS, Amersham, Arlington Heights, IL). Radioactivity was measured by a liquid scintillation spectrophotometer. Accumulation of ³H-5HT at 4°C represented the background and was subtracted from all samples.
The results of the evaluation of various compounds of the present invention are set forth below in Table I. In Table I, the first column provides the Example Number of the compound evaluated; the next 7 columns identify the structure of the compound evaluated when taken with the formula set forth in the heading; the next-succeeding column identifies the salt form of the compound evaluated; and the final column provides the amount of the test compound expressed in nanomolar concentration needed to inhibit the uptake of ³H-5HT by 50%, and is indicated in Table I as IC₅₀. Numbers in parentheses, if any, represent percent inhibition at 1000 nM.

T1 sequence (P31652 whole entry): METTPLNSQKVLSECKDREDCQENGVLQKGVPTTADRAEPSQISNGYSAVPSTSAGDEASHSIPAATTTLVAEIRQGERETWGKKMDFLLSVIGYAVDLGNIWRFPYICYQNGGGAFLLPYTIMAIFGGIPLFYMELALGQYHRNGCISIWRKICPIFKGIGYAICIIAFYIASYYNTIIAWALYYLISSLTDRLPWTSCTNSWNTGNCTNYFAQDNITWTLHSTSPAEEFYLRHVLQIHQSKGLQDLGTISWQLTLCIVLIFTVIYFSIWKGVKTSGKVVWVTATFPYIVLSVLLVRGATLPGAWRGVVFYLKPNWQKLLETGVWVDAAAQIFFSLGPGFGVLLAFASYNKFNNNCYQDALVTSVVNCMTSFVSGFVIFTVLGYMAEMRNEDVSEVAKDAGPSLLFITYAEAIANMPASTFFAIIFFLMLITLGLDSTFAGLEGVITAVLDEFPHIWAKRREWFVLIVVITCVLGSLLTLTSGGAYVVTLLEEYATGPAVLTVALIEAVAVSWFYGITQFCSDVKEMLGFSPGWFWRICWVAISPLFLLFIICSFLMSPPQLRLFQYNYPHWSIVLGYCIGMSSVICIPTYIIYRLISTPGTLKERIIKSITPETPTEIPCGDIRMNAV

SMILES | IC50 [nM]
COc1ccc(Br)c2c1CC(N1CCNCC1)CC2 (stereo not shown) [Example 16, 2-Piperazinyl-5-bromo-8-methoxy-1,2,3,4-tetrahydronaphthalene dihydrochloride] | 3.7
Clc1cccc2c1CC(N1CCCNCC1)CC2 (stereo not shown) [Example 5, 2-(Homopiperazinyl)-8-chloro-1,2,3,4-tetrahydronaphthalene dimaleate] | 260
Fc1ccc2c(c1)CCC(N1CCNCC1)C2 (stereo not shown) [Example 27, 2-Piperazinyl-6-fluoro-1,2,3,4-tetrahydronaphthalene dihydrochloride] | 340
Cc1cccc2c1CC(N1CCN(C)CC1)CC2 (stereo not shown) [Example 7, 2-(N-Methylpiperazinyl)-8-methyl-1,2,3,4-tetrahydronaphthalene dihydrochloride] | 87
COc1cccc2c1CC(N1CCN(C)CC1)CC2 (stereo not shown) [Example 1, 2-(Methylpiperazinyl)-8-methoxy-1,2,3,4-tetrahydronaphthalene dihydrochloride] | 57
Clc1cc2c(cc1Cl)CC(N1CCNCC1)CC2 (stereo not shown) [Example 30, 2-Piperazinyl-6,7-dichloro-1,2,3,4-tetrahydronaphthalene dihydrochloride] | 115
C[C@@H]1c2ccc(Cl)cc2CC[C@@H]1N1CCNCC1 (single isomer, unassigned; (+)) [Example 33a, (+)cis-1-Methyl-2-piperazinyl-6-chloro-1,2,3,4-tetrahydronaphthalene dihydrochloride dihydrate] | 84
CN1CCN(C2CCc3cc(Br)ccc3C2)CC1 (stereo not shown) [Example 31, 2-(N-Methylpiperazinyl)-6-bromo-1,2,3,4-tetrahydronaphthalene dihydrochloride] | 520
COc1ccc(C=O)c2c1CC(N1CCN(C)CC1)CC2 (stereo not shown) [Example 23, 2-(N-methylpiperazinyl)-5-formyl-8-methoxy-1,2,3,4-tetrahydronaphthalene dihydrochloride hydrate] | 10
COc1ccc(C#N)c2c1CC(N1CCN(C)CC1)CC2 (stereo not shown) [Example 24, 2-(N-methylpiperazinyl)-5-cyano-8-methoxy-1,2,3,4-tetrahydronaphthalene dihydrochloride] | 12
CC1c2ccc(Br)cc2CCC1N1CCNCC1 (stereo not shown) [Example 40, 1-Methyl-2-piperazinyl-6-bromo-1,2,3,4-tetrahydronaphthalene dihydrochloride] | 34
Cc1ccc(C)c2c1CCC(N1CCN(C)CC1)C2 (stereo not shown) [Example 8, 2-(N-Methylpiperazinyl)-5,8-dimethyl-1,2,3,4-tetrahydronaphthalene dimaleate] | 140
CN1CCN(C2CCc3cccc(F)c3C2)CC1 (stereo not shown) [Example 6, 2-(N-methylpiperazinyl)-8-fluoro-1,2,3,4-tetrahydronaphthalene dimaleate] | 180
CSc1cccc2c1CC(N1CCN(C)CC1)CC2 (stereo not shown) [Example 18, 2-(N-methylpiperazinyl)-8-methylthio-1,2,3,4-tetrahydronaphthalene dimaleate] | 40
CC1c2ccccc2CCC1N1CCNCC1 (stereo not shown) [Example 34, 1-Methyl-2-piperazinyl-1,2,3,4-tetrahydronaphthalene dihydrochloride] | 59
COc1ccc(C(F)F)c2c1CC(N1CCN(C)CC1)CC2 (stereo not shown) [Example 38, 2-(N-Methylpiperazinyl)-5-difluoromethyl-8-methoxy-1,2,3,4-tetrahydronaphthalene dimaleate] | 23
COc1ccc(Cl)c2c1CC(N1CCN(C)CC1)CC2 (stereo not shown) [Example 21, 2-(N-methylpiperazinyl)-5-chloro-8-methoxy-1,2,3,4-tetrahydronaphthalene dihydrochloride] | 16
Clc1cccc2c1CC(N1CCNCC1)CC2 (stereo not shown) [Example 3, 2-Piperazinyl-8-chloro-1,2,3,4-tetrahydronaphthalene dimaleate] | 83
COc1cccc2c1CC(N1CCNCC1)CC2 (stereo not shown) [Example 2, 2-Piperazinyl-8-methoxy-1,2,3,4-tetrahydronaphthalene dihydrochloride] | 90
COc1ccc2c(c1)CCC(N1CCNCC1)C2 (stereo not shown) [Example 29, 2-Piperazinyl-6-methoxy-1,2,3,4-tetrahydronaphthalene dihydrochloride] | 750

SMILES | IC50 [nM]
Clc1ccc2c(c1)CCC(N1CCCNCC1)C2 (stereo not shown) [Example 36, 2-Homopiperazinyl-6-chloro-1,2,3,4-tetrahydronaphthalene dihydrochloride] | 240
CC1c2ccccc2CCC1N1CCN(C)CC1 (stereo not shown) [Example 35, 1-Methyl-2-(N-methylpiperazinyl-1,2,3,4-tetrahydronaphthalenedihydrochloride] | 490
COc1ccc(OC)c2c1CCC(N1CCN(C)CC1)C2 (stereo not shown) [Example 10, 2-(N-methylpiperazinyl)-5,8-dimethoxy-1,2,3,4-tetrahydronaphthalene dihydrochloride] | 100
Cc1ccc2c(c1)CCC(N1CCNCC1)C2 (stereo not shown) [Example 28, 2-Piperazinyl-6-methyl-1,2,3,4-tetrahydronaphthalene dihydrochloride] | 210
CSc1ccc2c(c1)CCC(N1CCN(C)CC1)C2 (stereo not shown) [Example 39, 2-(N-Methylpiperizinyl)-6-methylthio-1,2,3,4-tetrahydronaphthalene dihydrochloride] | 434
COc1ccc(Br)c2c1CC(N1CCN(C)CC1)CC2 (stereo not shown) [Example 15, 2-(N-Methylpiperazinyl)-5-bromo-8-methoxy-1,2,3,4-tetrahydronaphthalene dihydrochloride] | 12
CN1CCN(C2CCc3cccc(Br)c3C2)CC1 (stereo not shown) [Example 9, 2-(N-Methylpiperazinyl)-8-bromo-1,2,3,4-tetrahydronaphthalene dimaleate] | 90
Brc1ccc2c(c1)CCC(N1CCNCC1)C2 (stereo not shown) [Example 26, 2-Piperazinyl-6-bromo-1,2,3,4-tetrahydronaphthalene dihydrochloride] | 350
C[C@@H]1c2ccc(Cl)cc2CC[C@@H]1N1CCNCC1 (single isomer, unassigned; (-)) [Example 33b, (-)cis-1-Methyl-2-piperazinyl-6-chloro-1,2,3,4-tetrahydronaphthalene dihydrochloride dihydrate] | 8.2
CN1CCN(C2CCc3cccc(O)c3C2)CC1 (stereo not shown) [Example 14, 2-(N-Methylpiperazinyl)-8-hydroxy-1,2,3,4-tetrahydronaphthalene dihydrobromide] | 50
CN1CCN(C2CCc3cc(Cl)ccc3C2)CC1 (stereo not shown) [Example 32, 2-(N-Methylpiperazinyl)-6-chloro-1,2,3,4-tetrahydronaphthalene dihydrochloride] | 450
C[C@@H]1c2ccc(Cl)cc2CC[C@@H]1N1CCNCC1 (racemic) [Example 33, cis-1-Methyl-2-piperazinyl-6-chloro-1,2,3,4-tetrahydronaphthalene dihydrochloride] | 12
COc1ccc(I)c2c1CC(N1CCN(C)CC1)CC2 (stereo not shown) [Example 22, 2-(N-methylpiperazinyl)-5-iodo-8-methoxy-1,2,3,4-tetrahydronaphthalene dihydrochloride] | 23
Clc1ccc2c(c1)CCC(N1CCNCC1)C2 (stereo not shown) [Example 25, 2-Piperazinyl-6-chloro-1,2,3,4-tetrahydronaphthalene dihydrochloride] | 100
CN1CCN(C2CCc3cccc(Cl)c3C2)CC1 (stereo not shown) [Example 4, 2-(N-methylpiperazinyl)-8-chloro-1,2,3,4-tetrahydronaphthalene dimaleate] | 35
CC1c2c(Cl)cccc2CCC1N1CCNCC1 (stereo not shown) [Example 12, 1-Methyl-2-piperazinyl-8-chloro-1,2,3,4-tetrahydronaphthalene dihydrochloride] | 270
Oc1ccc2c(c1)CCC(N1CCNCC1)C2 (stereo not shown) [Example 37, 2-Piperazinyl-6-hydroxy-1,2,3,4-tetrahydronaphthalene dihydrobromide] | 1000
COc1ccc(Br)c2c1C(C)C(N1CCNCC1)CC2 (single isomer, unassigned) [Example 19, 1-Methyl-2-piperazinyl-5-bromo-8-methoxy-1,2,3,4-tetrahydronaphthalene dihydrochloride] | 70
CC1c2c(Cl)cccc2CCC1N1CCN(C)CC1 (stereo not shown) [Example 11, 1-Methyl-2-(N-methylpiperazinyl)-8-chloro-1,2,3,4-tetrahydronaphthalene dimaleate] | 650
Cc1ccc(Br)c2c1CC(N1CCN(C)CC1)CC2 (stereo not shown) [Example 17, 2-(N-methylpiperazinyl)-5-bromo-8-methyl-1,2,3,4-tetrahydronaphthalene dihydrochloride] | 17
